Test results taken from PMC3758303 (PLoS ONE, 2013).

How the values were obtained:
Plasmodium berghei = test system: Plasmodium berghei; set-up: method as in PMID 11428929, PMID 17273878, PMID 12723958; conditions: cited from earlier work
HCV-RNA in ORL8 cells = test: Curing of ORL8 cells by N-89 treatment (G418 selection, Western blot); assay type: cell-based, hepatitis C virus; conditions: 1 µM, 3 weeks, addition at 4-day intervals, absence of G418
Procedure: (§1) To date, IFN-α alone or IFN-γ alone has generally been used to prepare cured cells from the cells harboring HCV-RNA [36]. Since we observed strong anti-HCV activity (>99% suppression) at 8 µM of N-89 in OR6 cells or 1 µM of N-89 in ORL8 cells without a decrease in cell viability (Fig. 1B), we expected that these cells might be cured only by treatment with N-89. Accordingly, OR6 and ORL8 cells were treated with 8 µM and 1 µM of N-89, respectively, in the absence of G418. The treatment was continued for 3 weeks with the addition of N-89 at 4-day intervals.
(§2) Figure 3 OR6 and ORL8 cells were cured by treatment with only N-89. The treated cells were divided into two plates with or without G418, and then cultured for 2 weeks. The left panels show the cells stained with Coomassie brilliant blue. The right panels show the results of Western blot analysis of the treated and non-treated cells for HCV proteins. Western blot analysis was performed as described in Fig. 1B.

mice = test system: mice; set-up: method as in PMID 11428929, PMID 17273878, PMID 12723958; conditions: cited from earlier work
rats = test system: rats; set-up: method as in PMID 11428929, PMID 17273878, PMID 12723958; conditions: cited from earlier work
HCV-RNA in OR6 cells = test: Curing of OR6 cells by N-89 treatment (G418 selection, Western blot); assay type: cell-based, hepatitis C virus; conditions: 8 µM, 3 weeks, addition at 4-day intervals, absence of G418
Procedure: as §1, §2

RSc-JRN/35B cells = test: Viability of RSc-JRN/35B cells (WST-1, trypan blue cell counting); assay type: cell-based, human; conditions: 10 µM
Procedure: (§3) The WST-1 cell proliferation assay was performed as described previously. Briefly, The cells were plated onto 96-well plates (1×10^3 cells per well) in triplicate and then treated with each reagent at several concentrations for 72 hrs. After treatment, the cells were subjected to the WST-1 cell proliferation assay (Takara Bio, Otsu, Japan) according to the manufacturer’s protocol. This assay is based on the enzymatic cleavage of the tetrazolium salt WST-1 to formazan by cellular mitochondrial dehydrogenases present in viable cells. Therefore, there are […] the value of the WST-1 assay becomes zero. The experiments were performed at least in triplicate. From the assay results, the 50% cytotoxic concentration (CC50) of each reagent was determined.
(§4) We next examined whether N-89 and N-251 worked in an HCV production system using HCV-JFH-1 strain (genotype 2a). […] To clarify whether anti-HCV activity depends on the difference of genotype or assay model, we evaluated the activities of N-89 and N-251 using RSc-JRN/35B [Ikeda et al., submitted] cells harboring a subgenomic HCV-JFH-1 replicon as an additional assay.

[1] = as above; assay type: cell-based, human; conditions: human, read-out: viable cells by cell counting after trypan blue dye treatment
Procedure: as §3, §4

Row | Structure (SMILES) | antimalarial activity in vivo (Plasmodium berghei) | curing of HCV-RNA-replicating cells (HCV-RNA in ORL8 cells) | 50% lethal dose (mice) | 50% lethal dose (rats) | curing of HCV-RNA-replicating cells (HCV-RNA in OR6 cells) | relative value of WST-1 (RSc-JRN/35B cells) | viability at 10 µM [1]
1 | C1CCCCCC2(CCCCC1)OOCCCOO2 [N-89, 1,2,6,7-Tetraoxaspiro[7.11]nonadecane] | potent antimalarial activity | cured | > 2000 mg/kg | > 2000 mg/kg | cured |  | 
2 | OCCCCCCC1COOC2(CCCCCCCCCCC2)OOC1 [N-251, 6-(1,2,6,7-tetraoxaspiro[7.11]nonadec-4-yl)hexan-1-ol] |  |  |  |  |  | almost became zero | ~30%
